Measured values taken from US20050261472A1, “Binding moieties for fibrin” (Dyax Corp., priority 1999, published 2005).

Assays:
fibrinogen = biological target: T1, fibrinogen (Homo sapiens, UniProt P02671+P02675+P02679); test: binding affinity by equilibrium dialysis; conditions: 190 μM vs. 2.7 μM
T1 sequence (P02671 20-644 isoform P02671-2 limits assumed): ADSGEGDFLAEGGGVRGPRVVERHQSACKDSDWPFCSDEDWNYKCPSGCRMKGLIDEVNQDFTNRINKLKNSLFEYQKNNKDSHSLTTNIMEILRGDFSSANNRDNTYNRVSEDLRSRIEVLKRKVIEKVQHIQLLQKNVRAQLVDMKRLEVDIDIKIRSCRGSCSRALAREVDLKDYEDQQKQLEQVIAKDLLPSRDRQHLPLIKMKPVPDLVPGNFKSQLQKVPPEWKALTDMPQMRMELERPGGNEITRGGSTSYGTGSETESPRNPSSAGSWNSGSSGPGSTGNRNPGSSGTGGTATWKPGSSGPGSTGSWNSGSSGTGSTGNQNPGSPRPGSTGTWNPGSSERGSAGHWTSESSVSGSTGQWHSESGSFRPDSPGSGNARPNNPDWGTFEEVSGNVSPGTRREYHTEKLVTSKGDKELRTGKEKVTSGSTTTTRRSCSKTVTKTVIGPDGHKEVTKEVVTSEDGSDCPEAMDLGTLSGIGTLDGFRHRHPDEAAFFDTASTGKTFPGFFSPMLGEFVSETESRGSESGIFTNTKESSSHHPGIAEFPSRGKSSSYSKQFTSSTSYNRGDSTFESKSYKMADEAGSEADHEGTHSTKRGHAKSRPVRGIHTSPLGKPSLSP
T1 sequence (P02675 31-491): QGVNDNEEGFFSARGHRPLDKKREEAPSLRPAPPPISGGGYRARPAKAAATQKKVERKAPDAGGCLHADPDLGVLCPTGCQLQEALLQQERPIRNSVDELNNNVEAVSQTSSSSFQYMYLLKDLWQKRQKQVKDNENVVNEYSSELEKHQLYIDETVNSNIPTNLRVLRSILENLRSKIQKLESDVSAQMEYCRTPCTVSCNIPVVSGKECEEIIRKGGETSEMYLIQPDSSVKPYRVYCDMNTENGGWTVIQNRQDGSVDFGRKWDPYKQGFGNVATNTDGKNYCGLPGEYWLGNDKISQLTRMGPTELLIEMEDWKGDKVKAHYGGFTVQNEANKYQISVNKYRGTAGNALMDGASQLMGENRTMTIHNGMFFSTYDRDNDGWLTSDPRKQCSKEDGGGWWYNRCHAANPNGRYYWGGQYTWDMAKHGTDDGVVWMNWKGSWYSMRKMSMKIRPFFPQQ
T1 sequence (P02679 27-437 isoform P02679-2 limits assumed): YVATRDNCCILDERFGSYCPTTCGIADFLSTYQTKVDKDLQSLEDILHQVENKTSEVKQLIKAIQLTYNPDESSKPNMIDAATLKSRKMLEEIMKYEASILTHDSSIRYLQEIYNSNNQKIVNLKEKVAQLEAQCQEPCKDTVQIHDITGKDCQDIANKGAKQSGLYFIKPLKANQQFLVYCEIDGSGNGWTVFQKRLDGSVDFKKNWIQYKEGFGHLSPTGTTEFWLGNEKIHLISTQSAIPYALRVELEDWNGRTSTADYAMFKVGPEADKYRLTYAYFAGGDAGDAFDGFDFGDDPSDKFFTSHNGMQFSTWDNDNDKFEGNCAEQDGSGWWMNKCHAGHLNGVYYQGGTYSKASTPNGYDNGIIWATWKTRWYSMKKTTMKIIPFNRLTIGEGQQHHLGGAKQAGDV
Protocol: A solution of fibrinogen (10 mg/ml) was mixed with the MR labeled peptide of Example 11 designated Gd-DTPA-Pep1, at concentrations of 10, 50 and 100 μM. The fibrinogen/peptide solution was placed on one side of a dialysis membrane in an equilibrium dialysis apparatus. The solution was allowed to equilibrate with an equal volume of buffer on the opposite side of the membrane.

DD(E) = biological target: T2, DD(E) (Homo sapiens, UniProt P02671+P02675+P02679); test: dissociation constant against fibrin-derived polypeptide DD(E); format: binding; conditions: read-out: Kd DD(E)
T2 construct: host or cells: purchased fibrinogen clotted with thrombin, digested with plasmin, then purified by ammonium sulfate cuts and Sephacryl S200

specificity for fibrin over fibrinogen (fibrinogen): roughly 70 fold | Kd (DD(E)): 2900 nM
SMILES: CC(C)C[C@H](NC(=O)[C@@H]1CSSC[C@H](NC(=O)[C@@H]2CCCN2C(=O)[C@H](CC(C)C)NC(=O)C[C@@H](C(=O)O)N(CCN(CC(=O)O)CC(=O)O)CCN(CC(=O)O)CC(=O)O)C(=O)N[C@@H](CC(=O)O)C(=O)N[C@@H](Cc2ccc(O)cc2)C(=O)N[C@@H](Cc2ccc(O)cc2)C(=O)NCC(=O)N[C@@H]([C@@H](C)O)C(=O)N1)C(=O)N[C@@H](CC(=O)O)C(N)=O [Gd-DTPA-Pep1]
